Test results reported in US8415469B2, “Compounds and methods for kinase modulation, and indications therefor” (Plexxikon Inc., priority 2005, dated 2013).

Legend:
Format in all cases: biochemical
Kdr = target: T1, Kdr (Homo sapiens, UniProt P35968); test: Z'-Lyte FRET kinase assay (Invitrogen), Kdr; conditions: read-out: IC50, activity toward kinase Kdr
T1 construct: purchased Invitrogen (assay run by Invitrogen)

MAP2K1 = target: T2, MAP2K1 (Homo sapiens, UniProt Q02750); test: Z'-Lyte FRET kinase assay (Invitrogen), MAP2K1; conditions: read-out: IC50, activity toward kinase MAP2K1
T2 construct: purchased Invitrogen (assay run by Invitrogen)
T2 sequence (Q02750 whole entry): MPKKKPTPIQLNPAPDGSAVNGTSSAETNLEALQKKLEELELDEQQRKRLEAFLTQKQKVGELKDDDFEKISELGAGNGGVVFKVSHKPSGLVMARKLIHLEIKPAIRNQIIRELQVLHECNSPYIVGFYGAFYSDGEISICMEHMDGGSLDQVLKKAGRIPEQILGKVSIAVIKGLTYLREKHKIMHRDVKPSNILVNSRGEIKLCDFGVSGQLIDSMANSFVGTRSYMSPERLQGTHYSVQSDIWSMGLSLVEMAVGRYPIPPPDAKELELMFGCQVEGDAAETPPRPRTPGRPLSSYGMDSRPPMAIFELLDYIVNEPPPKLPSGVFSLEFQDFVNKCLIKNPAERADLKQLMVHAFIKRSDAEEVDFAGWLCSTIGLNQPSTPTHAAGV

Stk6 = target: T3, Stk6 (Homo sapiens, UniProt O14965); test: Z'-Lyte FRET kinase assay (Invitrogen), Stk6; conditions: read-out: IC50, activity toward kinase Stk6
T3 construct: purchased Invitrogen (Carlsbad, Calif.), screening service
T3 sequence (O14965 1-403): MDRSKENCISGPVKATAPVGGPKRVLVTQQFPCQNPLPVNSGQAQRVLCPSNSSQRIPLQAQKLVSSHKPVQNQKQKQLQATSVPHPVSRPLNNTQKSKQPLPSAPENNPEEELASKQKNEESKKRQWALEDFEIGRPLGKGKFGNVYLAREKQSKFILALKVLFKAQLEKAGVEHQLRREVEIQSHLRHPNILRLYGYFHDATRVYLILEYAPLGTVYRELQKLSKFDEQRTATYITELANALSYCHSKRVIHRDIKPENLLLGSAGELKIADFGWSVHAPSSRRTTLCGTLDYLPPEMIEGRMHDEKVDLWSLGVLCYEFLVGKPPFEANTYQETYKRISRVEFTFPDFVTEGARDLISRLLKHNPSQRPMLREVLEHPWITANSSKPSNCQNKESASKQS

Met = target: T4, Met (Homo sapiens, UniProt P08581); test: AlphaScreen kinase assay, Met; conditions: read-out: IC50, activity toward kinase Met
T4 construct: P1818.pETN6 BI-PTP MET G1056-G1364-X WT; His6 (N); made in house; host or cells: E. coli (PTP1B co-expressed)
T4 sequence (P08581 with tags, fused parts or gaps): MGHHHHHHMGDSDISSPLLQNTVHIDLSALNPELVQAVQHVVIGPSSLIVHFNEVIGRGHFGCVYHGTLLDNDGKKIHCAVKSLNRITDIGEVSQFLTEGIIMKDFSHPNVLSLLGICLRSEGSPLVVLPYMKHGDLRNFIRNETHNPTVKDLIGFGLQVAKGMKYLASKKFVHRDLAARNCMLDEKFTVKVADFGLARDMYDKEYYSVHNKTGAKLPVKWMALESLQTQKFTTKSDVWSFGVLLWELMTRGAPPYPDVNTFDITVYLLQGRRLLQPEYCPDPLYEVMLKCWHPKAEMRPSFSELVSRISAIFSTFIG
Procedure, shortened: (§1)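 Uses phospho-specific antibody on acceptor beads plus streptavidin donor beads capturing biotinylated peptide substrate; singlet oxygen from donor excites nearby acceptor. Inhibitors tested in 8-point, 1:3 titrations starting from 20 mM DMSO solutions.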

Ret = target: T5, Ret (Homo sapiens, UniProt P07949); test: AlphaScreen kinase assay, Ret; conditions: read-out: IC50, activity toward kinase Ret
T5 construct: P1378.pET-SF BI-PTP RET H661-R1012 HIS; made in house
T5 sequence (P07949 with tags, fused parts or gaps): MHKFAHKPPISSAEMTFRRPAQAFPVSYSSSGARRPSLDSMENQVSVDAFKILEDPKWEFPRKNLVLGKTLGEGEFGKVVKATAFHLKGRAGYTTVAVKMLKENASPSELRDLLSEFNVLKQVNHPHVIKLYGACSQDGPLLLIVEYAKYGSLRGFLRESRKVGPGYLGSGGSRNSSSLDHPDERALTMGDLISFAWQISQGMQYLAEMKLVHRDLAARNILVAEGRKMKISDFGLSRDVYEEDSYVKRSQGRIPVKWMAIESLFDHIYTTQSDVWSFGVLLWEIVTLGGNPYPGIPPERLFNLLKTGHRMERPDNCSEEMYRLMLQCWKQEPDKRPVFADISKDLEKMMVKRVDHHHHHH

Flt4 = target: T6, Flt4 (Homo sapiens, UniProt P35916); test: AlphaScreen kinase assay, Flt4; conditions: read-out: IC50, activity toward kinase Flt4
T6 construct: purchased ProQinase GmbH (Freiburg, Germany)
T6 sequence (P35916 25-1363): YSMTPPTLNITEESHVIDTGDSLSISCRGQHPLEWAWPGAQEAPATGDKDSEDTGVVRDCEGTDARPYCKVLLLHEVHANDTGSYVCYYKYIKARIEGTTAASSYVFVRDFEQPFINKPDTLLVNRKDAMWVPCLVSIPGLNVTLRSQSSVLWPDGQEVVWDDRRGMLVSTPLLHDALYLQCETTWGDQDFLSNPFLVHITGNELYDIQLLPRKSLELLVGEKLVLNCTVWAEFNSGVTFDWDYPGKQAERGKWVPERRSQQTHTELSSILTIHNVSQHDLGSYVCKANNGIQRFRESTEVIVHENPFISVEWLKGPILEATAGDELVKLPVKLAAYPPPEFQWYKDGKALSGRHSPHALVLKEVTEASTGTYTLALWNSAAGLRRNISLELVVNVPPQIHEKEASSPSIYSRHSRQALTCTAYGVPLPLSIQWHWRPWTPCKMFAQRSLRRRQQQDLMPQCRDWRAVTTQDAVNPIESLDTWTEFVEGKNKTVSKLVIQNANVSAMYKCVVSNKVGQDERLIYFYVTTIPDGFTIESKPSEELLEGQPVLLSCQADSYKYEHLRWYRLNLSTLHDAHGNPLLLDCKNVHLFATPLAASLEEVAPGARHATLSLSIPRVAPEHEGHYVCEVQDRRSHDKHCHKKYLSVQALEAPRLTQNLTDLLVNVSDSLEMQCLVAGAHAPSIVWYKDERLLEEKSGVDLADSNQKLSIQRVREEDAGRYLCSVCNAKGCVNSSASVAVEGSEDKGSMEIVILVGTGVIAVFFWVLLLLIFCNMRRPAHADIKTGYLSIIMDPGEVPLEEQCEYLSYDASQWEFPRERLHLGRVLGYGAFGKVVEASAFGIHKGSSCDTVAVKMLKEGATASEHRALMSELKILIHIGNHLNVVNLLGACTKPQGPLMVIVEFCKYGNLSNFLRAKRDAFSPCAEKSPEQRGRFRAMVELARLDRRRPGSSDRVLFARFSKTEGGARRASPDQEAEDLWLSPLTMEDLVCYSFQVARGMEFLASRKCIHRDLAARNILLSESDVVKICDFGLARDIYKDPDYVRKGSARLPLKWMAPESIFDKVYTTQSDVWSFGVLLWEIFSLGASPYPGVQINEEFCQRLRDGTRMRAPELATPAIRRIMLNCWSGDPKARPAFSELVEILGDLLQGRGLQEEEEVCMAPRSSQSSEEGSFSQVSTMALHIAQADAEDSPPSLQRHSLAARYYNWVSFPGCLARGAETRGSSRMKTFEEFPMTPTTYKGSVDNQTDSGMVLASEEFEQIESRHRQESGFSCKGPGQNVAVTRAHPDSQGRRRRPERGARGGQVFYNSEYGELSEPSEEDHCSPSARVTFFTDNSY
Procedure, shortened: as §1

Kit = target: T7, Kit (Homo sapiens, UniProt P10721); test: AlphaScreen kinase assay, Kit; conditions: read-out: IC50, activity toward kinase Kit
T7 construct: P1332.N6 BI PTP KIT M552-K948-X COD; His6 (N); made in house; host or cells: E. coli (PTP1B co-expressed)
T7 sequence (P10721 with tags, fused parts or gaps): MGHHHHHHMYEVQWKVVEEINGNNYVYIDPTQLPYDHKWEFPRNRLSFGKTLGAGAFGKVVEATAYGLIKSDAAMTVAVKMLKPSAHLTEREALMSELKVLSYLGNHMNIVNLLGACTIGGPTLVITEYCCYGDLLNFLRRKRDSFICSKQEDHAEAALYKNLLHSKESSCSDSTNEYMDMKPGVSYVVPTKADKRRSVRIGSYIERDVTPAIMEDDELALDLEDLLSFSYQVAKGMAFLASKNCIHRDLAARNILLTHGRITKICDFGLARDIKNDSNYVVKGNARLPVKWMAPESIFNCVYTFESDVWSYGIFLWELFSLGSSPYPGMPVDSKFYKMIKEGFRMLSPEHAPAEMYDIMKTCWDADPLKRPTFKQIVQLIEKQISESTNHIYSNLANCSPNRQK

Jnk3 = target: T8, Jnk3 (Homo sapiens, UniProt P53779); test: AlphaScreen kinase assay, Jnk3; conditions: read-out: IC50, activity toward kinase Jnk3
T8 construct: purchased Upstate Biotechnology
T8 sequence (P53779 whole entry): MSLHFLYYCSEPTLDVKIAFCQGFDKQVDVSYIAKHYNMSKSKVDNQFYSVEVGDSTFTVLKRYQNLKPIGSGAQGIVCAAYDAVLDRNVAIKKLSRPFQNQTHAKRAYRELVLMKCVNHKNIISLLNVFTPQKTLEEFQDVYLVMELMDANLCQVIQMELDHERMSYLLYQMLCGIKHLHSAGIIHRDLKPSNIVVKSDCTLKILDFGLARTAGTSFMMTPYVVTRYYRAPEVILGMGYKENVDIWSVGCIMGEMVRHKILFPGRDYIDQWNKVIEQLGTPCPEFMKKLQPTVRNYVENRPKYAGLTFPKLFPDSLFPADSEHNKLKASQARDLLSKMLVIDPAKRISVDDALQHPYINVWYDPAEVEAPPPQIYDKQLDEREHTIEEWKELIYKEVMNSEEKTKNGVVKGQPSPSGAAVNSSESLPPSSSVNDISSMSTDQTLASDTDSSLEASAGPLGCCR

FGFR1 = target: T9, FGFR1 (Homo sapiens, UniProt P11362, C488A/C584S); test: AlphaScreen kinase assay, FGFR1; conditions: read-out: IC50, activity toward kinase FGFR
T9 construct: P1351.pET N6 BI-PTP FGFR A458-E765-X C488A, C584S; made in house; host or cells: E. coli (PTP1B co-expressed)
T9 sequence (P11362 458-765 C488A/C584S): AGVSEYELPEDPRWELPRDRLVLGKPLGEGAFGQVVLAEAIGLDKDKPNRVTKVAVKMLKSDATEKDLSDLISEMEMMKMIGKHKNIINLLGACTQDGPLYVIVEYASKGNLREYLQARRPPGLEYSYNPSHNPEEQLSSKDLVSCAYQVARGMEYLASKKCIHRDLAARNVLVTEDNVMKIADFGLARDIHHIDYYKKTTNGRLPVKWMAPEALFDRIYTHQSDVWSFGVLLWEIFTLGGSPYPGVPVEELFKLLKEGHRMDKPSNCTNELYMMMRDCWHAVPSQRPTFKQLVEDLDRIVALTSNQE

MAP4K4 = MAP4K4 (Homo sapiens, UniProt O95819); test: AlphaScreen kinase assay, MAP4K4; conditions: read-out: IC50, activity toward kinase MAP4K4
Fms = target: T10, Fms (Homo sapiens, UniProt P07333); test: AlphaScreen kinase assay, Fms; conditions: read-out: IC50, activity toward kinase Fms
T10 construct: purchased Upstate Biotechnology
T10 sequence (P07333 20-972): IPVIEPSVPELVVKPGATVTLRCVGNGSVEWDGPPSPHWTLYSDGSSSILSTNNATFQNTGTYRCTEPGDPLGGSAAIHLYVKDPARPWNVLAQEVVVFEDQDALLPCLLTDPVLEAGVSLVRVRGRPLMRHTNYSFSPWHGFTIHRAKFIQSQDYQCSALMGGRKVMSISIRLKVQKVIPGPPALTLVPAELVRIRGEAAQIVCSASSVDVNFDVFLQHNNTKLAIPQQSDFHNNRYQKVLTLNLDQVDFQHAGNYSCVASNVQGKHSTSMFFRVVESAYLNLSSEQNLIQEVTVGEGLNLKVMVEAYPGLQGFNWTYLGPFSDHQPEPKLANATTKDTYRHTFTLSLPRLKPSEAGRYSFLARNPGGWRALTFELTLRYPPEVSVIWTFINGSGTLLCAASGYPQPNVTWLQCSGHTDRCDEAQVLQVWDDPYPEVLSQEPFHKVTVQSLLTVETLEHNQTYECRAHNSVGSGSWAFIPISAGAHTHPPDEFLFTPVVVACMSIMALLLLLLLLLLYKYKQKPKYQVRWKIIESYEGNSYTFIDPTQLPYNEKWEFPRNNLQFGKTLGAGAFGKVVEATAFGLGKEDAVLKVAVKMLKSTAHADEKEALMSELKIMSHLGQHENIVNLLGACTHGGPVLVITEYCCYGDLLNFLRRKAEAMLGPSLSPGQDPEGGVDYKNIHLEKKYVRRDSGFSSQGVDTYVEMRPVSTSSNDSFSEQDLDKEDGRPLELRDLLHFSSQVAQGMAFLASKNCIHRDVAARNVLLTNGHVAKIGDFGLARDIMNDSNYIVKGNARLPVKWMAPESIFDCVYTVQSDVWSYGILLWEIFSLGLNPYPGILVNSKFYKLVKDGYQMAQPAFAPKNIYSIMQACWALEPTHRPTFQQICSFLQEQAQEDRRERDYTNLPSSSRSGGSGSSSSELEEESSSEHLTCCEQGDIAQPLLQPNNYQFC

B-Raf V600E = target: T11, B-Raf V600E (Homo sapiens, UniProt P15056, V600E); test: AlphaScreen kinase assay, B-Raf V600E; conditions: read-out: IC50, activity toward kinase B-Raf V600E
T11 construct: P4254. pFastBacBD-CDC37 BRAF D437-K722-X, V600E; His6 with pFastBac HT leader (TEV site) (N); made in house; host or cells: Sf9 (baculovirus; chaperone CDC37 co-expressed)
T11 sequence (P15056 with tags, fused parts or gaps V600E): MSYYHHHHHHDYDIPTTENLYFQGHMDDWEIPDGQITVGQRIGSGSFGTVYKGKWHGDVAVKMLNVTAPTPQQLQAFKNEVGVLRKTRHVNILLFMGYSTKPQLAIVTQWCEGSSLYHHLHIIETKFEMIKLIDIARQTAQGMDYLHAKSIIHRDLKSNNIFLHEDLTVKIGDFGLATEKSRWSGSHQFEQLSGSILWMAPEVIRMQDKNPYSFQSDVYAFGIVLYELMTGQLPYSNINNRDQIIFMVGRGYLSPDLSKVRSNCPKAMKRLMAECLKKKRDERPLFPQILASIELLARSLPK

Src = target: T12, Src (Homo sapiens, UniProt P12931); test: AlphaScreen kinase assay, Src; conditions: read-out: IC50, activity toward kinase Src
T12 construct: P1144. pET-N6 BI-PTP SRC V86-L536-X; made in house

Yes = target: T13, Yes (Homo sapiens, UniProt P07947); test: Z'-Lyte FRET kinase assay (Invitrogen), Yes; conditions: read-out: IC50, activity toward kinase Yes
T13 construct: purchased Invitrogen (Carlsbad, Calif.), screening service
Procedure, shortened: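 Each kinase phosphorylated a FRET peptide (2 μM) at 10 μM ATP in 50 mM HEPES pH 7.5, 50 mM MgCl2, 5 mM EGTA, 0.05% BRIJ-35 with 1% DMSO, 1 h at room temperature. After a 1 h protease development step, coumarin/fluorescein emission ratio was read across serial compound dilutions.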

Btk = target: T14, Btk (Homo sapiens, UniProt Q06187); test: Z'-Lyte FRET kinase assay (Invitrogen), Btk; conditions: read-out: IC50, activity toward kinase Btk
T14 construct: purchased Invitrogen (assay run by Invitrogen)

Abl = target: T15, Abl (Homo sapiens, UniProt P00519); test: AlphaScreen kinase assay, Abl; conditions: read-out: activity toward kinase Abl, IC50
T15 construct: P1121. pET-SPEC BI-PTP Abl G227-V515-X; His6 (N); made in house; host or cells: E. coli (PTP1B co-expressed)
T15 sequence (P00519 with tags, fused parts or gaps): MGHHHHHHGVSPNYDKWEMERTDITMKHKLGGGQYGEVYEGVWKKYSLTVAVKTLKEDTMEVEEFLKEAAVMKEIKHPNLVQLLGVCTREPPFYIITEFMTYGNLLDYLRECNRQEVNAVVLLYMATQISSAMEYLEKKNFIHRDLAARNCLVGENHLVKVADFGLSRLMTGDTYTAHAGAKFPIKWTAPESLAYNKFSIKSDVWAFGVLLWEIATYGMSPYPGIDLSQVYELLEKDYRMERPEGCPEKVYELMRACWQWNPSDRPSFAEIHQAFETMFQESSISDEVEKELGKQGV
Procedure, shortened: as §1

c-Raf-1 = target: T16, c-Raf-1 (Homo sapiens, UniProt P04049); test: AlphaScreen kinase assay, c-Raf-1; conditions: read-out: IC50, activity toward kinase c-Raf-1
T16 construct: purchased Upstate Biotechnology

Flt1 = target: T17, Flt1 (Homo sapiens, UniProt P17948); test: AlphaScreen kinase assay, Flt1; conditions: read-out: IC50, activity toward kinase Flt1
T17 construct: P1826.pETN6 BI-PTP FLT1 M799-D1165-X WT; His6 (N); made in house; host or cells: E. coli (PTP1B co-expressed)
T17 sequence (P17948 with tags, fused parts or gaps): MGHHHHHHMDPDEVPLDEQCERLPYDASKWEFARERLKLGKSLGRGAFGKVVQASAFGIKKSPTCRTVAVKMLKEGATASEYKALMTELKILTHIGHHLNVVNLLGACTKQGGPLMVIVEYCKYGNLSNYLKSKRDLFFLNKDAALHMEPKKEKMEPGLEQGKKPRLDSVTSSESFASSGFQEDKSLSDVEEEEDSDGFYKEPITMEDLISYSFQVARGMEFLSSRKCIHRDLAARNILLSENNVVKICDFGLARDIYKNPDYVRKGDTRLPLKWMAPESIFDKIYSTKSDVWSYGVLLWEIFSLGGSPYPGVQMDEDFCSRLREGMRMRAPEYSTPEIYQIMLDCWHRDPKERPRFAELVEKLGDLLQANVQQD

Gsk3β = Gsk3β (Homo sapiens, UniProt P49841); test: AlphaScreen kinase assay, Gsk3β; conditions: read-out: IC50, activity toward kinase Gsk3β
Gsk3β, sequence (P49841 whole entry): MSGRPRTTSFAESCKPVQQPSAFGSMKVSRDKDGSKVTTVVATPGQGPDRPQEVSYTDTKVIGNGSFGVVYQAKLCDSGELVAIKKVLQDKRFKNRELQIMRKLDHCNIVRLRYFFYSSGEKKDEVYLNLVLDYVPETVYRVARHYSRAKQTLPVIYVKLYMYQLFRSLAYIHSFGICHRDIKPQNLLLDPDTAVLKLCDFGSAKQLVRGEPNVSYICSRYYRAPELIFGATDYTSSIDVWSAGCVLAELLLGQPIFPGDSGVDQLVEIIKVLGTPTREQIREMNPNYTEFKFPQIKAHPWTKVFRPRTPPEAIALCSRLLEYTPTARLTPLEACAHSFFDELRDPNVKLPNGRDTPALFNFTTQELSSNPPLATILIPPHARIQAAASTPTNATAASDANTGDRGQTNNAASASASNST
Source text: AlphaScreen assay was used to screen additional kinases. The assay is similarly dependent on the phosphorylation of a peptide substrate. In this assay, an antibody that recognizes phosphorylated substrate is bound to an acceptor bead. The peptide substrate is attached to biotin, which binds to a donor head that contains streptavidin. Thus phosphorylated substrate is bound by antibody and streptavidin, bringing the donor and acceptor heads into close proximity when kinase is not inhibited. The donor produces singlet oxygen which results in emission from the acceptor when they are in close proximity. Conversely, when kinase is inhibited, the donor and acceptor beads are not associated and the emission from the acceptor is reduced.
AlphaScreen assays were done using compounds dissolved in DMSO to a concentration of 20 mM. The compounds were diluted accordingly to the desired final concentrations in each sample well, using 1:3 serial dilution for a total of 8 concentration points.

Measured: IC50

c1cncc(-c2c[nH]c3ncccc23)c1 [Compound P-0023]
≤ 10 µM: Kdr | MAP2K1 | Stk6

Cc1cc(C(=O)c2c[nH]c3ncc(-c4cccc(N)c4)cc23)nn1C [Compound P-0117]
≤ 10 µM: Kdr | Met | Ret | Flt4 | Kit | Jnk3 | Stk6

COc1cccc(C(=O)c2c[nH]c3nccc(Cl)c23)c1 [Compound P-0149]
≤ 10 µM: Kdr | Met | MAP2K1 | FGFR1

COc1ccc(C(=O)c2c[nH]c3ncccc23)c(Cl)c1 [Compound P-0152]
not listed: Stk6 | Met | Flt4 | Jnk3 | Abl | c-Raf-1 | Flt1 | Gsk3β
≤ 10 µM: all other assays above

O=C(c1ccccc1F)c1c[nH]c2ncccc12 [Compound P-0158]
≤ 10 µM: Kdr | Ret | MAP2K1 | FGFR1

COc1cccc(C(=O)c2c[nH]c3ncc(-c4cccnc4)cc23)c1 [Compound P-0167]
≤ 10 µM: Kdr | Abl | Ret | Flt4 | Kit | MAP2K1 | FGFR1

CS(=O)(=O)Nc1ccc(F)c(C(=O)c2c[nH]c3ncc(Br)cc23)c1 [Compound P-0170, N-[3-(5-Bromo-1H-pyrrolo[2,3-b]pyridine-3-carbonyl)-4-fluoro-phenyl]-methanesulfonamide]
≤ 10 µM: Kdr | Fms | c-Raf-1 | B-Raf V600E | MAP2K1 | FGFR1

O=C1NCc2ccccc2N1Cc1c[nH]c2ncccc12 [Compound P-0194]
≤ 10 µM: Kdr | Flt1 | MAP2K1

CS(=O)(=O)Nc1cccc(C(=O)c2c[nH]c3ncccc23)c1 [Compound P-0198]
≤ 10 µM: MAP4K4 | Kdr | MAP2K1 | FGFR1

Cc1cc(C)cc(-c2ccnc3[nH]cc(Sc4ccccn4)c23)c1 [Compound P-0273]
≤ 10 µM: Gsk3β

COc1ccc(F)c(C(=O)c2c[nH]c3ncc(-c4cccc(NC(C)=O)c4)cc23)c1 [Compound P-0325]
≤ 10 µM: Met | Fms | Ret | B-Raf V600E | Flt4 | Kit | Flt1 | Btk | FGFR1

O=C(CCc1c[nH]c2ncccc12)NCc1ccccc1 [Compound P-0331]
≤ 10 µM: MAP2K1

S=C(NCc1c[nH]c2ncccc12)Nc1cccc(Cl)c1 [Compound P-0337]
≤ 10 µM: Kdr | Flt1 | MAP2K1

Nc1cccc(-c2c(CN3CCC(C(=O)O)CC3)[nH]c3ncccc23)c1 [Compound P-0462]
≤ 10 µM: Gsk3β

O=C(NCc1cccc(Cl)c1)NCc1c[nH]c2ncccc12 [Compound P-0568]
≤ 10 µM: MAP2K1
